Measurements reported in patent US3939143A, “1-N-isoserylkanamycins and the production thereof” (Zaidan Hojin Biseibutsu Kagaku Kenkyu Kai, priority 1973, dated 1976).
Values after ≈ are worked out from the molar mass of the structure shown.

Experiments:
[1] = tested on: Escherichia coli K-12 ML 1410 R81; assay: Minimum inhibitory concentration, serial dilution on nutrient agar; format: cell-based; conditions: 18 h, read-out: Minimum Inhibitory Concentration
[2] = tested on: Escherichia coli JR66/W677; assay: as above; format: cell-based; conditions: JR66/W677, 37°C, 18 hours, read-out: Minimum Inhibitory Concentration
[3] = tested on: Bacillus cereus ATCC 10702; assay: as above; format: cell-based; conditions: ATCC10702, 18 h, read-out: Minimum Inhibitory Concentration
[4] = tested on: Mycobacterium smegmatis ATCC 607; assay: as above; format: cell-based; conditions: Mycolicibacterium smegmatis, ATCC607, 18 h, read-out: Minimum Inhibitory Concentration
[5] = tested on: Staphylococcus aureus FDA 209P; assay: as above; format: cell-based; conditions: FDA209P, 18 h, read-out: Minimum Inhibitory Concentration
[6] = tested on: Pseudomonas aeruginosa 99; assay: as above; format: cell-based; conditions: Pseudomonas aeruginosa, 99, 18 h, read-out: Minimum Inhibitory Concentration
[7] = tested on: Staphylococcus aureus Smith; assay: as above; format: cell-based; conditions: 18 h, read-out: Minimum Inhibitory Concentration
Proteus vulgaris OX 19 = assay: as above; format: cell-based; conditions: OX19, 18 h, read-out: Minimum Inhibitory Concentration
Salmonella typhosa T-63 = assay: as above; format: cell-based; conditions: Salmonella enterica, 18 h, read-out: Minimum Inhibitory Concentration
[8] = tested on: Klebsiella pneumoniae 22 No. 3038; assay: as above; format: cell-based; conditions: 22NO.3038, 18 h, read-out: Minimum Inhibitory Concentration
Bacillus anthracis = assay: microbe, parasite or virus in culture; format: cell-based; conditions: 18 h, read-out: Minimum Inhibitory Concentration
[9] = tested on: Staphylococcus aureus Terajima; assay: Minimum inhibitory concentration, serial dilution on nutrient agar; format: cell-based; conditions: 18 h, read-out: Minimum Inhibitory Concentration
Escherichia coli NIHJ = assay: as above; format: cell-based; conditions: 18 h, read-out: Minimum Inhibitory Concentration
[10] = tested on: Klebsiella pneumoniae PCI 602; assay: as above; format: cell-based; conditions: PCI602, 18 h, read-out: Minimum Inhibitory Concentration
Sarcina lutea PCI 1001 = assay: as above; format: cell-based; conditions: Micrococcus luteus, PCI1001, 18 h, read-out: Minimum Inhibitory Concentration
[11] = tested on: Escherichia coli K-12 ML 1410; assay: as above; format: cell-based; conditions: K12ML1410, 18 h, read-out: Minimum Inhibitory Concentration
[12] = tested on: Salmonella enteritidis 1891; assay: as above; format: cell-based; conditions: Salmonella enterica, 18 h, read-out: Minimum Inhibitory Concentration
[13] = tested on: Shigella dysenteriae JS 11910; assay: as above; format: cell-based; conditions: JS11910, 18 h, read-out: Minimum Inhibitory Concentration
Escherichia coli K-12 = assay: as above; format: cell-based; conditions: K12, 18 h, read-out: Minimum Inhibitory Concentration
[14] = tested on: Bacillus subtilis NRRL B-558; assay: as above; format: cell-based; conditions: NRRLB558, 18 h, read-out: Minimum Inhibitory Concentration
[15] = tested on: Corynebacterium bovis 1810; assay: as above; format: cell-based; conditions: Corynebacterium bovis, 1810, 18 h, read-out: Minimum Inhibitory Concentration
[16] = tested on: Escherichia coli LA290 R56; assay: as above; format: cell-based; conditions: LA290R56, 18 h, read-out: Minimum Inhibitory Concentration
Escherichia coli W677 = assay: as above; format: cell-based; conditions: W677, 18 h, read-out: Minimum Inhibitory Concentration
[17] = tested on: Pseudomonas aeruginosa GN315; assay: as above; format: cell-based; conditions: GN315, 18 h, read-out: Minimum Inhibitory Concentration
[18] = tested on: Bacillus subtilis PCI 219; assay: as above; format: cell-based; conditions: PCI219, 18 h, read-out: Minimum Inhibitory Concentration
[19] = tested on: Pseudomonas aeruginosa No.12; assay: as above; format: cell-based; conditions: NO.12, 18 h, read-out: Minimum Inhibitory Concentration
nucleotidyltransferase = conditions: adenylylation of 2"-hydroxyl group with ATP; cited from earlier work
[20] = tested on: Pseudomonas aeruginosa A3; assay: Minimum inhibitory concentration, serial dilution on nutrient agar; format: cell-based; conditions: 37°C, 18 hours
Description: (§1) The minimum inhibitory concentrations (mcg/ml) of 1-N-DL-isoserylkanamycin,1-N-DL-isoserylkanamycin B and 1-N-DL-isoseryl-3',4'-dideoxykanamycin B against various microorganisms were determined according to the serial dilution method using nutrient agar medium at 37°C, the estimation being effected after 18 hours incubation. For comparison purposes, the minimum inhibitory concentrations of kanamycin, kanamycin B and 3',4'-dideoxykanamycin B were also determined in the same manner and under the same conditions as mentioned above.
(§2) The antibacterial spectra of 1-N-DL-isoseryl-kanamycin (abbreviated as 1-IS-KM), 1-N-DL-isoseryl-kanamycin B (abbreviated as 1-IS-KMB) and 1-N-DL-isoseryl-3',4'-dideoxykanamycin B (abbreviated as 1-IS-DKB) are shown in the following table together with those of kanamycin (abbreviatedas KM), kanamycin B (abbreviated as KMB) and 3',4'-dideoxykanamycin B (abbreviated as DKB).

[21] = tested on: Pseudomonas aeruginosa TI-13; assay: as above; format: cell-based; conditions: TI13, 37°C, 18 hours
Description: as §1, §2

Shigella sonnei JS 11746 = assay: as above; format: cell-based; conditions: JS11746, 37°C, 18 hours
Description: as §1, §2

[22] = tested on: Escherichia coli K-12 ML 1630; assay: as above; format: cell-based; conditions: K12ML1630, 37°C, 18 hours
Description: as §1, §2

[23] = tested on: Shigella flexneri 4b JS 11811; assay: as above; format: cell-based; conditions: 4BJS11811, 37°C, 18 hours
Description: as §1, §2

[24] = tested on: Escherichia coli K-12 ML 1629; assay: as above; format: cell-based; conditions: K12ML1629, 37°C, 18 hours, read-out: Minimum Inhibitory Concentration
[25] = tested on: Escherichia coli LA290 R55; assay: as above; format: cell-based; conditions: LA290R55, 18 h, read-out: Minimum Inhibitory Concentration
[26] = tested on: Escherichia coli LA290 R64; assay: as above; format: cell-based; conditions: LA290R64, 18 h, read-out: Minimum Inhibitory Concentration
[27] = tested on: gram-negative and gram-positive bacteria; assay: antibacterial activity, in words; format: cell-based; conditions: optically active L- or D-isoseryl form
Description: as §1, §2

mice = assay: acute toxicity upon intravenous injection in mice; format: in vivo; conditions: optically active L- or D-isoseryl form
[28] = tested on: kanamycin- and ribostamycin-resistant bacteria; conditions: some kanamycin- and ribostamycin-resistant bacteria; cited from earlier work

Question: What does the source list for `NC[C@H]1O[C@H](O[C@H]2[C@H](O)[C@@H](O[C@H]3O[C@H](CO)[C@@H](O)[C@H](N)[C@H]3O)[C@H](N)C[C@@H]2N)[C@H](O)[C@@H](O)[C@@H]1O` [KM, kanamycin]?
Answer: MIC [1]: > 100 µg/mL; MIC [2]: > 100 µg/mL; MIC [3]: 1.56 µg/mL (≈ 3.22 µM); MIC [4]: 0.78 µg/mL (≈ 1.61 µM); MIC [5]: 0.78 µg/mL (≈ 1.61 µM); MIC [6]: > 100 µg/mL; MIC [7]: < 0.2 µg/mL; MIC (Proteus vulgaris OX 19): 0.78 µg/mL (≈ 1.61 µM); MIC (Salmonella typhosa T-63): 0.39 µg/mL (≈ 0.805 µM); MIC [8]: > 100 µg/mL; MIC (Bacillus anthracis): < 0.2 µg/mL; MIC [9]: < 0.2 µg/mL; MIC (Escherichia coli NIHJ): 1.56 µg/mL (≈ 3.22 µM); MIC [10]: 0.78 µg/mL (≈ 1.61 µM); MIC (Sarcina lutea PCI 1001): 6.25 µg/mL (≈ 12.9 µM); MIC [11]: 1.56 µg/mL (≈ 3.22 µM); MIC [12]: 0.78 µg/mL (≈ 1.61 µM); MIC [13]: 6.25 µg/mL (≈ 12.9 µM); MIC (Escherichia coli K-12): 1.56 µg/mL (≈ 3.22 µM); MIC [14]: < 0.2 µg/mL; MIC [15]: 3.13 µg/mL (≈ 6.46 µM); MIC [16]: 12.5 µg/mL (≈ 25.8 µM); MIC (Escherichia coli W677): 1.56 µg/mL (≈ 3.22 µM); MIC [17]: > 100 µg/mL; MIC [18]: < 0.2 µg/mL; MIC [19]: 25 µg/mL (≈ 51.6 µM); inactivation by nucleotidyltransferase (nucleotidyltransferase): inactivating; MIC [20]: 50 µg/mL (≈ 103 µM); MIC [21]: > 100 µg/mL; MIC (Shigella sonnei JS 11746): 3.13 µg/mL (≈ 6.46 µM); MIC [22]: > 100 µg/mL; MIC [23]: 6.25 µg/mL (≈ 12.9 µM); MIC [24]: > 100 µg/mL; MIC [25]: 100 µg/mL (≈ 206 µM); MIC [26]: 12.5 µg/mL (≈ 25.8 µM)

Question: Which “antibacterial activity relative to the DL-form (racemic form)” value [27] does the source give for `NC[C@H](O)C(=O)N[C@@H]1C[C@H](N)[C@@H](O[C@H]2O[C@H](CN)[C@@H](O)[C@H](O)[C@H]2O)[C@H](O)[C@H]1O[C@H]1O[C@H](CO)[C@@H](O)[C@H](N)[C@H]1O` [1-N-L-isoserylkanamycin] here?
Answer: the same as those of 1-N-DL-isoserylkanamycin

Question: What about the “toxicity relative to the DL-form” value (mice) of the same compound?
Answer: the same as those of 1-N-DL-isoserylkanamycin

Question: With `NCC[C@H](O)C(=O)N[C@@H]1C[C@H](N)[C@@H](O[C@H]2O[C@H](CN)[C@@H](O)[C@H](O)[C@H]2N)[C@H](O[C@@H]2O[C@H](CO)[C@@H](O)[C@H]2O)[C@H]1O` [butirosin B, 1-N-[(S)-4-amino-2-hydroxy-n-butyryl]-ribostamycin] as the compound, how does the “activity against resistant bacteria” value [28] read?
Answer: active
